Assay results: patent US10781229B2, “Tris- or neopentyl glycol-based amphiphiles and uses thereof” (Industry-University Cooperation Foundation Hanyang …, priority 2015, dated 2020)

Experiments:
[1] = target: T1, MelBEc (Escherichia coli, UniProt P02921); experiment: Trp to D2G FRET reversal by melibiose, functional state of solubilized MelBEc; type: biochemical; conditions: 1.0% by weight, solubilized at 23° C. for 30 minutes
T1 construct: made in house; host or cells: E. coli DW2, right-side-out membrane vesicles
T1 sequence (P02921 whole entry): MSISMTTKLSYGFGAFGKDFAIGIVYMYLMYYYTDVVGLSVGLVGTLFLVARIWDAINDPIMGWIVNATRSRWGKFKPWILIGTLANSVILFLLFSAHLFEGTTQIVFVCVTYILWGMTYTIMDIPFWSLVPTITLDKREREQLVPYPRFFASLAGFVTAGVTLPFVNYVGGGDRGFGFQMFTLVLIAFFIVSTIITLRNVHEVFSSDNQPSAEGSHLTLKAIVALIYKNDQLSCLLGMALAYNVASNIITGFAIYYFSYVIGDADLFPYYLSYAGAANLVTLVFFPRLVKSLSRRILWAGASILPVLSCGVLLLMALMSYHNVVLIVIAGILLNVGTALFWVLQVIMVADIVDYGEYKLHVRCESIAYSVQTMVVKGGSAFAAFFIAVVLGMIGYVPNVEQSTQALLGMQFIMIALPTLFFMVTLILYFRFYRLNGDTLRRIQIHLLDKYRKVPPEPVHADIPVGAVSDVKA
Protocol: So as to investigate functional states of MelB proteins dissolved by amphipathic molecules, Førster resonance energy transfer (FRET) to 2′-(N-dansyl)aminoalkyl-1-thio-β-D-galactopyranoside (D^2G), as a fluorescence ligand, was measured in tryptophan (Trp). […] However, if a protein dissolved by an amphipathic molecule has activity, melibiose substitutes for the coupled D^2G molecule upon addition of the melibiose and thus energy transfer no longer occurs, thereby decreasing fluorescence intensity. Accordingly, the activity of the MelB protein dissolved in DDM or NDT-C11 can be determined by whether reversal of D^2G FRET occurs due to melibiose in Trp. Therefore, the FRET measurement method is an efficient method to measure the membrane protein structural stabilization ability of an amphipathic molecule.
In particular, a right-side-out (RSO) membrane vesicle was prepared by osmotic lysis of an E. coli DW2 cell containing MelBSt or MelBEc and re-suspended with 100 mM KPi (pH 7.5), followed by storing at −80° C. D^2G was provided by H. Ronald Kaback and Gerard Leblanc. A protein concentration of an RSO membrane vesicle in 100 mM KPi, pH 7.5, and 50 mM NaCl was 1 mg/ml concentration. […] An emission wavelength of MelBEc was measured at 465 nm and an emission wavelength of MelBSt was measured at 490 nm. […] Accordingly, fluorescence intensity is decreased. […]

[2] = target: LeuT E192C^TMR (Aquifex aeolicus, UniProt O67854, E192C); experiment: Site-directed fluorescence (iodide) quenching of LeuT E192C-TMR, Stern-Volmer analysis; type: biochemical; conditions: for Δ KSV: leucine-induced change of iodide accessibility of TMR, CMC+0.04% by weight detergent, means [s.e.m. interval]; for Ksv when leucine is absent: no leucine, LeuT E192C-TMR in CMC+0.04% by weight detergent
From the text: A principle of this experiment is as follows: A cysteine residue was inserted into a 192th LeuT site (E192C), followed by coupling with a thiol-reactive fluorophore (tetramethylrhodamine-5-maleimide, TMR). The prepared LeuT E192C^TMR, as TMR-coupled LeuT, is an excellent system to sensitively monitor protein structure change in response to ligand coupling. […] Due to such change, TMR fluorescence molecules exposed to an aqueous solution become closer to iodide (I^−), as a quencher dissolved in water, whereby strong fluorescence quenching is caused. TMR quenching intensity by leucine coupling may be represented by Stern-Volmer plotting and thus structural flexibility of a protein may be directly measured. Ligand bindability of the TMR-labeled transporter was measured using SPA while increasing the amount of [^3H]leucine.
In particular, structure, expression, purification, and fluorescence labeling were performed according to the following methods. In accordance with a method disclosed in a paper published by C. B. Billesbolle, et al. (J. Biol. Chem. 2015, 290, 26725-26738), a leucine transporter mutant (LeuT E192C^TMR) was produced and purification and labeling were carried out. In summary, a residue of the E192 was mutated with cysteine using QuikChange (Agilent Technologies) such that fluorescence coupling was accomplished by maleimide labeling. The LeuT mutant was expressed in E. coli C41 (DE3). A membrane of DE3 was disrupted and LeuT was solubilized with 1% (w/v) DDM. Subsequently, LeuT solubilized with the amphipathic molecule was fixed to a Chelating Sepharose Fast Flow resin (GE Healthcare, Little Chalfont, UK), followed by washing with tetramethylrhodamine-5-maleimide (TMR, Life Technologies, Carlsbad, Calif., USA) at 4° C. for 16 hours. Subsequently, LeuT was eluted with a buffer containing 300 mM imidazole, 20 mM Tris-HCl (pH 8.0), 1 mM NaCl, 199 mM KCl, and 0.05% DDM.
Fluorescence spectroscopy was carried out according to the following method. A fluorescence-based experiment was carried out by diluting 0.5 μg ml^−1 of fluorescence-labeled LeuT with buffer A supplemented with CMC+0.04% by weight of DDM, MNG-3 or NDT-C11. Leucine was separately added to specimen aliquots of LeuT for each concentration and incubated for one hour in a room temperature shaker. Steady-state fluorescence intensities were recorded with a FluoroMax4 (Horiba Scientific, Edison, N.J., USA) at λem=572 nm and excitation source at λex=552 nm at 25° C. Quencher-titration was carried out by successive additions of small specimen aliquots containing 1 M KI into buffer A supplemented with 10 mM Na2S2O3. Fluorescence intensities (F) were corrected for sample dilution and normalized to the initial intensity (F0) of a sample. All data was analyzed by linear-(Stern-Volmer plot) or nonlinear regression in GraphPad Prism 6.0 (GraphPad Software). The degree of iodide (I^−) accessibility was obtained from the following Stern-Volmer equation: F0/F=1+Ksv×[Q], where F0/F is normalized fluorescence quenching, Ksv is a Stern-Volmer constant, and [Q] is quencher concentration. When means are calculated as a log, the means are shown as pIC50 and the [s.e.m. interval] from pIC50±s.e.m.
Values of radioligand binding constants were calculated through SPA saturation binding experiments. Values of iodide quenching-response constants and ΔKSV were calculated from a site-directed fluorescence quenching spectroscopy. The affinity (Kd) is shown as means±s.e.m and ΔKSV is shown as means [s.e.m. interval]. All data is shown as means of three to four independent experiments.

Row | Compound | Functional state of solubilized MelBEc (melibiose binding, FRET) [1] | Δ KSV [2] [M⁻¹] | Ksv when leucine is absent [2] | Structural fluidity of the LeuT protein ([2]; conclusion from ΔKsv)
1 | CCCCCCCCCCCCOC1OC(CO)C(OC2OC(CO)C(O)C(O)C2O)C(O)C1O [DDM, n-dodecyl-β-D-maltopyranoside, reference compound] | completely lost | 1.1 | up to 1.6 | 
2 | CCCCCCCCCCCC(CCCCCCCCCCC)COCC(CO[C@@H]1OC(CO)[C@@H](O)C(O)C1O)(CO[C@@H]1OC(CO)[C@@H](O)C(O)C1O)CO[C@@H]1OC(CO)[C@@H](O)C(O)C1O (stereo partly shown) [NDT-C11] | effectively maintained | 0.9 | up to 2.5 | satisfactorily maintains the structural fluidity
